Measured values taken from patent US4650868A, “7-deazapurine derivatives useful as antitumor agents” (Takeda Chemical Industries, Ltd., priority 1984, dated 1987).
In brackets after ≈: the same amount, converted by molar mass.

How the values were obtained:
[1] = test system: rat liver tRNA-guanine transglycosylase; assay: Uptake of the compound into [3H]guanine-labeled tRNA; format: biochemical; details: 0.02 OD260 of compound, 37° C., 17 hours, [3H]guanine labeled tRNA (8000 cpm)
Description: [^3 H] guanine labeled tRNA*) (8000 cpm), 70 mM of […], 60 mM of magnesium chloride, 0.5 unit of rat liver tRNA-guanine transglycosylase and 0.02 OD260 of the compound obtained in Example 1 to be described hereinafter were prepared to the total volume of 100 μl, and the reaction was allowed to proceed at 37° C. for 17 hours. The reaction solution was applied to a Whatman 3 MM filter paper (produced by Whatman Co., U.S.A.), which was washed three times with a 5% aqueous solution of trichloroacetic acid and once successively with ethanol/ether (1:1) and ether alone.
(*) tRNA with the first letter of its anticodon labeled with [^3 H]-guanine.

[2] = test system: L5178Y mouse tumor cells; assay: Growth inhibition of cultured L5178Y cells; format: cell-based; details: 72 hours incubation with drug, cell count, non-treated control = 100%, read-out: IC50 (50% growth inhibitory concentration)
Description: 1×10^4 L5178Y mouse tumor cells were suspended in 2 ml of a RPMI-1640 medium (produced by Nissui Pharmaceutical Co. of Japan) containing 10% of bovine fetal serum, 20 μM of 2-mercaptoethanol and 100 μg/ml of Kanamycin, and incubated at 37° C. for 24 hours before addition of the drug. Using the above culture fluid as a diluent, the compound as obtained in Example 3 to be described hereinafter was diluted 1/4-fold in a series of 5 stages and added to the culture medium in such a manner that the maximum concentration of the compound might be 200 μg/ml. The dilutions were further incubated for 72 hours, at the end of which time the cells were counted with use of a counter and the IC50 (50% growth inhibitory concentration) was calculated with the count for the non-treated control group being taken as 100%. The IC50 value was 2.0 μg/ml.

[3] = test system: Meth A tumor cells; assay: Meth A tumor subcutaneously transplanted into BALB/c mouse; format: in vivo; details: 100 mg/kg intraperitoneally once a day for 14 consecutive days from day 4; tumor weight on 35th day after transplantation
Description: 5×10^4 Meth A tumor cells were subcutaneously transplanted into a BALB/c mouse weighing 20 g, and starting with the fourth day after transplantation, a solution of the compound as obtained in Example 3 to be described hereinafter in 0.1 ml of distilled water prepared in such a way that a dose might be 100 mg/kg was intraperitoneally injected into the mouse once a day for 14 consecutive days. On the 35th day after transplantation, the tumor node was enucleated and its weight (T) was measured.

Compound	uptake of the test compound into tRNA [1] [%]	IC50 [2] [µg/mL]	tumor inhibition rate (T/C) [3] [%]
COc1ccccc1NCc1c[nH]c2nc(N)[nH]c(=O)c12 [Example 1, 2-amino-5-(2-methoxyphenylaminomethyl)pyrrolo[2,3-d]pyrimidin-4-one]	120	–	–
COc1cc(NCc2c[nH]c3nc(N)[nH]c(=O)c23)cc(OC)c1OC [Example 2 (2), 2-Amino-5-(3,4,5-trimethoxyphenylaminomethyl)pyrrolo[2,3-d]pyrimidin 4-one]	140	–	–
Nc1ccc(NCc2c[nH]c3nc(N)[nH]c(=O)c23)cc1 [Example 3, 2-amino-5-(4-aminophenylaminomethyl)pyrrolo[2,3-d]pyrimidin-4-one]	–	2 (≈ 7.4 µM)	36
